Data: PubChem BioAssay (NCI)
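In this assay, cells in 96-well plates receive the compound at five concentrations for 48 hours. Endpoints are linearly interpolated between the surrounding concentrations. Here, GI50 denotes the concentration required for 50% inhibition of growth. TGI: concentration producing complete growth inhibition.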

Columns and labels:
Experiment in all cases: growth of human tumour cells (NCI), 48 h
[1] = tested on: K-562 leukemia
[2] = tested on: MOLT-4 leukemia
[3] = tested on: SN12C renal
[4] = tested on: SW-620 colon
[5] = tested on: SF-539 CNS
[6] = tested on: A549 NSCLC
[7] = tested on: OVCAR-3 ovarian
[8] = tested on: IGROV1 ovarian
[9] = tested on: OVCAR-8 ovarian
[10] = tested on: HT29 colon

| Structure (SMILES) | GI50 [1] | TGI [1] | GI50 [2] | TGI [2] | GI50 [3] | TGI [3] | GI50 [4] | TGI [4] | GI50 [5] | TGI [5] | GI50 [6] | TGI [6] | GI50 [7] | TGI [7] | GI50 [8] | TGI [8] | GI50 [9] | TGI [9] | TGI [10] | GI50 [10] |
| --- | --- | --- | --- | --- | --- | --- | --- | --- | --- | --- | --- | --- | --- | --- | --- | --- | --- | --- | --- | --- |
| COc1ccc([C@H]2c3cc(OC)c(OC)cc3C=C(C=O)C2CO)cc1OC (some centres not stated) | 6.03 µM | > 100 µM | > 100 µM | > 100 µM | 5.7 µM | > 100 µM | 3.49 µM | > 100 µM | 3.33 µM | > 100 µM | 52.5 µM | > 100 µM | 2.09 µM | 4.87 µM | 2.08 µM | 8.89 µM | 6.9 µM | > 100 µM | – | – |
| COC1OC(OC)C2C(c3c(C)cc(C)cc3C)=NOC12 (configuration not stated) | – | > 100 µM | – | > 100 µM | – | – | – | > 100 µM | – | – | – | > 100 µM | – | > 100 µM | – | > 100 µM | – | > 100 µM | > 100 µM | – |
| COc1ccc(C(=O)O/N=C2\CCCC\C2=C/c2ccccc2)cc1 | – | – | – | > 100 µM | – | > 100 µM | – | > 100 µM | – | 81.2 µM | – | > 100 µM | – | – | – | > 100 µM | – | > 100 µM | > 100 µM | – |
| CC/C(=C(\c1ccccc1)c1ccc(OCCN(C)C)cc1)c1ccccc1 | 1.84 µM | – | – | – | 3.34 µM | – | 2.95 µM | – | – | – | 2.93 µM | – | 2.84 µM | – | 4.44 µM | – | 5.35 µM | – | – | 1.17 µM |
| C1=C[C@@H]2c3ccc4cnccc4c3NC[C@@H]2C1 | – | > 100 µM | – | > 100 µM | – | > 100 µM | – | > 100 µM | – | > 100 µM | – | > 100 µM | – | > 100 µM | – | > 100 µM | – | > 100 µM | – | – |
| COc1cc[c]([Hg][Cl])cc1 | 1.84 µM | 6.73 µM | 1.64 µM | 6.59 µM | 2.51 µM | 6.17 µM | 1.54 µM | 3.18 µM | 3.3 µM | 11.1 µM | 23.8 µM | 40.8 µM | – | – | 1.53 µM | 3.92 µM | 6.11 µM | > 100 µM | 61 µM | 5.4 µM |
| CCCCNC(=S)Nn1c(-c2ccccc2)nc2ccccc2c1=O | – | > 100 µM | – | > 100 µM | – | > 100 µM | – | > 100 µM | – | > 100 µM | – | > 100 µM | – | – | – | > 100 µM | – | > 100 µM | > 100 µM | – |
| Clc1ccc(Cl)c(N/N=C\c2c[nH]c3ccccc23)c1 | 1.83 µM | 17.7 µM | 0.293 µM | 11.8 µM | 7.15 µM | 22.3 µM | 10.3 µM | 24.6 µM | 8.16 µM | 21 µM | 14.1 µM | 29.4 µM | 11.4 µM | 26.1 µM | 0.0611 µM | 0.623 µM | 14.9 µM | 29.4 µM | – | – |
| c1ccc([CH2][Sn]([CH2]c2ccccc2)([S]c2cccc3cccnc23)[S]c2cccc3cccnc23)cc1 | – | – | – | – | 0.303 µM | 1.19 µM | 0.21 µM | 0.813 µM | 0.26 µM | 0.662 µM | – | – | 0.136 µM | 0.383 µM | 0.289 µM | 0.849 µM | 0.361 µM | 1.4 µM | 0.39 µM | 0.175 µM |
| CCc1ccc(Cc2ccc(CC)c(NC(=O)C(=O)Cc3nc4ccccc4nc3C)c2CC)c(CC)c1NC(=O)C(=O)Cc1nc2ccccc2nc1C | – | > 100 µM | – | > 100 µM | – | – | – | > 100 µM | – | > 100 µM | – | > 100 µM | – | > 100 µM | – | > 100 µM | – | > 100 µM | – | – |
| COc1cc([C@@H]2c3cc4c(cc3[C@H](OC3OC5COC(c6ccccc6)OC5C(O)C3O)[C@H]3COC(=O)[C@H]23)OCO4)cc(OC)c1OC (some centres not stated) | 0.359 µM | > 100 µM | – | – | 0.368 µM | 20.6 µM | 0.396 µM | 10.8 µM | – | – | 0.344 µM | 5.68 µM | 0.282 µM | 0.711 µM | 0.337 µM | 1.34 µM | 0.355 µM | 2.12 µM | 2.32 µM | 0.356 µM |
| Nc1nc2nc3c(nc2c(=O)[nH]1)CN(c1ccc(C(=O)O)cc1)C3=O | – | > 100 µM | – | – | – | > 100 µM | – | > 100 µM | – | > 100 µM | – | > 100 µM | – | – | – | > 100 µM | – | > 100 µM | > 100 µM | – |
| O=C(c1ccccc1)c1nnn(Cc2cccc(Cl)c2)c1C(=O)c1ccccc1 | – | > 100 µM | – | > 100 µM | – | – | – | > 100 µM | – | – | – | > 100 µM | – | > 100 µM | – | > 100 µM | – | > 100 µM | > 100 µM | – |
| Cc1ccc(S(=O)(=O)NCCCN(CCCNS(=O)(=O)c2ccc(C)cc2)S(=O)(=O)c2ccc(C)cc2)cc1 | – | > 100 µM | – | > 100 µM | – | > 100 µM | – | > 100 µM | – | > 100 µM | – | > 100 µM | – | > 100 µM | – | > 100 µM | – | > 100 µM | – | – |
| Cc1cc(Cl)n2c(nc3ccccc32)c1C#N | 0.256 µM | 61.3 µM | 1.06 µM | 22.8 µM | 0.499 µM | 8.33 µM | 0.055 µM | 1.79 µM | 0.576 µM | 7.86 µM | 0.385 µM | 7.43 µM | 0.583 µM | 1.86 µM | 0.414 µM | 1.82 µM | 0.597 µM | 11.9 µM | – | – |
